The values that follow come from patent US8216580B2, “Sulfatases and methods of use thereof” (The Regents of the University of California, priority 2000, dated 2012).

The subject of assay [1] is pancreatic adenocarcinoma cell lines. In words: Transwell co-culture proliferation (cell counts) with HEK 293 feeder layer. The assay is classed as cell-based, human. The note with it: exogenous protein from 293 feeder layer. As for the experimental part: Co-culture experiments were performed in transwell plates with 24-well inserts with 5 μm polycarbonate membrane pore size (Corning Incorporated). HEK 293 cells were plated in the wells as feeder layer and one day later 1-2×10^3 cells of the pancreatic adenocarcinoma cell lines were plated in the inserts. Cells were grown in DMEM supplemented with 10% fetal calf serum.
293 cells expressing either HSulf-2, HSulf-2-DCC, parental 293 or only medium alone were used as feeder layer; and pancreatic adenocarcinoma lines were grown on transwell filters. Subsequently, cell counts were followed over time.

Assay [2] has as its system chick chorioallantoic membrane (CAM). In words: Chick chorioallantoic membrane (CAM) angiogenesis assay. The assay is classed as in vivo. The following applies: 5×10^6 stably transfected CHO cells on CAM of 9 day embryos, 72 hrs; compared to CHO-Sulf-1 or empty vector clone. As for the experimental part: Sulf-2 functions as a heparan sulfate degrading enzyme (HSDE) during tumor angiogenesis by mobilizing angiogenic factors from sequestration with HSPGs We employed the chick chorioallantoic membrane (CAM) assay, a standard angiogenesis assay. CHO cells were stably transfected with HSulf-1, HSulf-2, or the empty vector and clones were isolated. Single clones of each type were implanted on the surface of the CAM of 9 day embryos. After 72 hrs, the number of new blood vessel branches was determined under a dissecting scope.
FIG. 17. Pro-angiogenic activity of HSulf-2. 5×10^6 CHO cells were implanted on the CAM of 9-day chick embryos. The CHO cells were clones that were stably transfected with either the empty vector (clone V1), HSulf-1 (clone 9) or HSulf-2 (clone 18). After 72 hrs of further incubation, the number of blood vessel branches was counted under a dissecting microscope. 6 eggs were treated with each type of CHO cell. Means and standard errors of the means are indicated.

For the substance “HSulf-2 ΔCC: catalytically inactive HSulf-2, cysteines 88 and 89 mutated to alanines (CC88, 89AA)”, the “proliferation (cell counts over time)” value was “inhibited” in assay [1] (BxPC-3, HS766T and L3.6sl cells); “did not show any response” in assay [1] (CFPAC-1 cells). In the case of “HSulf-2: Human SULF2, an 870 amino acid sulfatase protein, SEQ ID NO:06; expressed with C-terminal Myc-His tag”, the “number of new blood vessel branches” value in assay [2] is listed as “dramatic response”.
